Data: PubChem BioAssay (NCI)
Values joined by “and” are separate entries in the source; they are usually repeats but may differ in a detail not shown here. Equal values may be shown once.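 Five concentrations, 48 hours, 96-well plates. Abbreviation: GI50, concentration required for 50% inhibition of growth. TGI: concentration producing complete growth inhibition.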

Experiments:
Assay in all cases: NCI tumour cell line growth inhibition, 48 h
HCC-2998 colon = system: HCC-2998 colon
HCT-15 colon = system: HCT-15 colon
CAKI-1 renal = system: CAKI-1 renal
786-0 renal = system: 786-0 renal
KM12 colon = system: KM12 colon
HT29 colon = system: HT29 colon
K-562 leukemia = system: K-562 leukemia
SNB-19 CNS = system: SNB-19 CNS
NCI-H226 lung = system: NCI-H226 lung
DU-145 prostate = system: DU-145 prostate

SMILES | TGI (HCC-2998 colon) | TGI (HCT-15 colon) | TGI (CAKI-1 renal) | TGI (786-0 renal) | TGI (KM12 colon) | TGI (HT29 colon) | TGI (K-562 leukemia) | TGI (SNB-19 CNS) | TGI (NCI-H226 lung) | GI50 (NCI-H226 lung) | GI50 (HCT-15 colon) | GI50 (CAKI-1 renal) | GI50 (786-0 renal) | GI50 (KM12 colon) | GI50 (DU-145 prostate) | TGI (DU-145 prostate) | GI50 (HT29 colon) | GI50 (K-562 leukemia) | GI50 (SNB-19 CNS) | GI50 (HCC-2998 colon)
CSc1snc2sc3c(Cl)nnnc3c12 | 21.2 µM | 24.9 µM | 15.9 µM | 29.7 µM | 30 µM | 19.6 µM | 5.73 µM | 30.1 µM | – | – | – | – | – | – | – | – | – | – | – | –
Cc1cccc(C(C)(C)C)c1NC(=O)CCc1nc(=S)[nH][nH]1 | > 100 µM | > 100 µM | > 100 µM | > 100 µM | > 100 µM | > 100 µM | > 100 µM | > 100 µM | > 100 µM | – | – | – | – | – | – | – | – | – | – | –
CCOC(=O)c1cnc2c(ccc3ncccc32)c1NCCCN(CC)CC | > 100 µM | > 100 µM | > 100 µM | > 100 µM | > 100 µM | > 100 µM | > 100 µM | > 100 µM | > 100 µM | – | – | – | – | – | – | – | – | – | – | –
CC(=O)O[C@@]1(C)[C@@H](C)C(=O)O[C@@H]2CCN3CC=C(COC(=O)[C@]1(C)O)[C@H]23 | > 100 µM | > 100 µM | > 100 µM | > 100 µM | > 100 µM | > 100 µM | > 100 µM | > 100 µM | > 100 µM | – | – | – | – | – | – | – | – | – | – | –
CC(C)(C)c1ccc(OCCOCCOc2ccc(C(C)(C)C)cc2S(=O)(=O)Nc2ccc([N+](=O)[O-])cc2)c(S(=O)(=O)Nc2ccc([N+](=O)[O-])cc2)c1 | > 100 µM | > 100 µM | > 100 µM | > 100 µM | > 100 µM | > 100 µM | > 100 µM | > 100 µM | > 100 µM | – | – | – | – | – | – | – | – | – | – | –
O=C(O/N=C1/CCC/C1=C\c1ccccc1)c1ccc(Cl)c(Cl)c1 | > 100 µM | > 100 µM | > 100 µM | > 100 µM | > 100 µM | > 100 µM | > 100 µM | – | > 100 µM | – | – | – | – | – | – | – | – | – | – | –
Nc1ccc(-c2cccs2)cc1NC(=O)c1ccc(CCCC(=O)Nc2ccc(C3CC3N)cc2)cc1 (stereo unspecified) | – | > 100 µM | > 100 µM | 3.37 µM | > 100 µM | – | – | – | 7.57 µM | 2.7 µM | 5.99 µM | > 100 µM | 1610 nM | 3.43 µM | – | – | – | – | – | –
Cc1cn2c(/C=N/N=C(N)N)c(-c3ccccn3)nc2s1 | – | 39.1 µM | 41.7 µM | 17.9 µM | 33.2 µM | > 92.8 µM | > 100 µM | 35.8 µM | > 58.2 µM | 25.1 µM | 19.5 µM | 20.8 µM | 6560 nM | 15.4 µM | 10.5 µM | 37.7 µM | 19400 nM | 19500 nM | 15.1 µM | –
O=C1C2C(C(=O)N1c1ccccc1)C1([N+](=O)[O-])C=C3c4ccccc4N(C(=O)c4ccccc4)C32C2C(=O)N(c3ccccc3)C(=O)C21 (stereo unspecified) | > 100 µM | > 100 µM | > 100 µM | > 100 µM | > 100 µM | > 100 µM | > 100 µM | > 100 µM | – | – | – | – | – | – | – | – | – | – | – | –
COc1ccc2c3c(c(C(=O)c4ccccc4)oc13)CCC2 | > 100 µM | > 100 µM | > 100 µM | > 100 µM | – | > 100 µM | > 100 µM | > 100 µM | – | – | – | – | – | – | – | – | – | – | – | –
CC(C(N)C(=O)NC(C(=O)O)C1OC(n2ccc(=O)[nH]c2=O)C(O)C1O)C(O)c1ccc(O)cn1 (stereo unspecified) | > 100 µM | > 100 µM | > 100 µM | > 100 µM | > 100 µM | > 100 µM | – | > 100 µM | – | – | – | – | – | – | – | > 100 µM | – | – | – | –
COC(=O)C12OCC34C(CC5C(C)C6=CC(=O)OC6=CC5(C)C3C(O)C1O)OC(=O)C(O)C24 (stereo unspecified) | 0.347 µM and 0.676 µM | 12.9 µM | 30 µM | 5.66 µM | 12.5 µM | 0.674 µM | 6.94 µM | – | – | 0.0875 µM | 0.458 µM | – | 310 nM | 0.331 µM | – | – | 1680 nM | 46.8 nM | 0.0525 µM | 75 nM
NC1=NN(c2ccccc2)C(=O)C1C(=O)C(=O)Nc1nccs1 (stereo unspecified) | > 100 µM | > 100 µM | > 100 µM | > 100 µM | > 100 µM | > 100 µM | > 100 µM | > 100 µM | > 100 µM | – | – | – | – | – | – | – | – | – | – | –
CC1(C)NCCC[C@]2(C)[C@H]3CC[C@@H]4[C@H]5[C@H](C(=O)/C=C/c6ccccn6)CC[C@]5(CO)CC[C@@]4(C)[C@]3(C)CC[C@@H]12 | – | 3.89 µM | 6.85 µM | 6.26 µM | 4.27 µM | 11.3 µM | > 100 µM | 19.8 µM | 20.7 µM | 4.24 µM | 1.84 µM | 2.14 µM | 2430 nM | 2.07 µM | 3.56 µM | 12.4 µM | 2850 nM | 2190 nM | 3.92 µM | –
Nc1n[n+](-c2ccccc2)no1 | > 100 µM | > 100 µM | > 100 µM | > 100 µM | > 100 µM | > 100 µM | > 100 µM | > 100 µM | > 100 µM | – | – | – | – | – | – | – | – | – | – | –
CC1=C(O)/C(=C/C(C)CCC/C(C)=C/C=C/C(C)CCCc2ccoc2)OC1=O (stereo unspecified) | 63 µM | – | > 100 µM | 84.9 µM | > 100 µM | > 100 µM | – | – | 68.8 µM | – | – | – | – | – | – | – | – | – | – | –
O=C1C2CCN(CC2)C1(CO)CO | – | 34.6 µM | 40 µM | 44 µM | > 93.2 µM | 73.7 µM | 54.5 µM | > 100 µM | 46.6 µM | – | – | – | – | – | – | 31.6 µM | – | – | – | –
CC(=O)[CH-]C(=O)c1ccccc1.CC(=O)[CH-]C(=O)c1ccccc1.Cc1cc([O-])ccc1Cl.Cc1cc([O-])ccc1Cl.[Ti+4] | 28.1 µM | > 100 µM | 60.1 µM | > 100 µM | 31.4 µM | 95.5 µM | > 100 µM | 90.5 µM | 69.2 µM | 20.2 µM | 25.6 µM | 19.5 µM | 27700 nM | 14.1 µM | – | – | 28900 nM | 23300 nM | 26.7 µM | 5920 nM
O=C(N/N=C1\C(=O)N(c2nccs2)C(=O)C(=O)C1c1nc2ccccc2s1)c1ccccc1O (stereo unspecified) | > 100 µM | > 100 µM | > 100 µM | > 100 µM | > 100 µM | > 100 µM | > 100 µM | > 100 µM | > 100 µM | – | – | – | – | – | – | – | – | – | – | –
CCc1cc(CCC(=O)Nc2ccccc2[N+](=O)[O-])[nH]c(=S)n1 | – | > 100 µM | – | > 100 µM | > 100 µM | > 100 µM | > 100 µM | > 100 µM | > 100 µM | – | – | – | – | – | – | – | – | – | – | –
C=C1CC2CC(O)CC(C1)C2 (stereo unspecified) | – | – | > 100 µM | > 100 µM | > 100 µM | > 100 µM | – | > 100 µM | > 100 µM | – | – | – | – | – | – | – | – | – | – | –
CCOC(=O)C(CC/C=C\c1ccccc1)N1CCC[C@H]1C(=O)OC (stereo partly specified) | > 100 µM | – | > 100 µM | > 100 µM | > 100 µM | > 100 µM | > 100 µM | > 100 µM | > 100 µM | – | – | – | – | – | – | – | – | – | – | –
Cc1cc(N2CCOCC2)nc(N(CCCNc2ccnc3cc(Cl)ccc23)Cc2ccco2)n1 | 8.18 µM | 11.6 µM | – | 3.17 µM | 12.8 µM | 8.57 µM | 11.7 µM | 15.4 µM | 33.9 µM | 12 µM | 2.37 µM | – | 1580 nM | 2.7 µM | 3.23 µM | 14.2 µM | 1830 nM | 1330 nM | 3.81 µM | 2970 nM
CC(=O)c1c(CO[N+](=O)[O-])n([O-])c2ccccc2[n+]1=O | – | > 100 µM | > 100 µM | > 100 µM | – | > 100 µM | > 100 µM | > 100 µM | > 100 µM | – | – | – | – | – | – | > 100 µM | – | – | – | –
COc1ccc2oc(C(=O)O)c3c2c1CCC3CCC(=O)O (stereo unspecified) | > 100 µM | – | – | > 100 µM | > 100 µM | > 100 µM | > 100 µM | > 100 µM | – | – | – | – | – | – | – | – | – | – | – | –
O=C(CCn1[nH]c(=O)c(Cl)c(Cl)c1=O)NNC(=O)C[n+]1ccccc1 | > 100 µM | > 100 µM | > 100 µM | > 100 µM | > 100 µM | > 100 µM | > 100 µM | > 100 µM | > 100 µM | – | – | – | – | – | – | – | – | – | – | –
O=C(CC(=O)c1cccc2ccccc12)C(=O)NC1C2CC3CC(C2)CC1C3 (stereo unspecified) | > 100 µM | > 100 µM | > 100 µM | > 100 µM | > 100 µM | > 100 µM | > 100 µM | > 100 µM | > 100 µM | – | – | – | – | – | – | – | – | – | – | –
C/C=C(\CCOS(=O)(=O)c1ccc(C)cc1)[Si](C)(C)C | > 100 µM | > 100 µM | – | > 100 µM | > 100 µM | > 100 µM | > 100 µM | > 100 µM | – | – | – | – | – | – | – | – | – | – | – | –
N#CC1(C#N)C2C=CC(c3coc4cccc2c34)C1(C#N)C#N (stereo unspecified) | 30 µM | 19.2 µM | – | 34.8 µM | 33.8 µM | 41.6 µM | 6.22 µM | 33.8 µM | 34.3 µM | – | – | – | – | – | – | – | – | – | – | –
Cc1cccc2c1CCC21OC(=O)c2c1ccc1ccccc21 (stereo unspecified) | > 100 µM | > 100 µM | > 100 µM | > 100 µM | > 100 µM | > 100 µM | 66.7 µM | > 100 µM | > 100 µM | – | – | – | – | – | – | – | – | – | – | –
